Data published in article PMC12362783 (Advanced Science, 2025).

Columns and labels:
MDA‐MB‐231 = experiment: Cell growth inhibition, CellTiter‐Glo (CTG); type: cell-based; conditions: Homo sapiens, MDA-MB-231, 120 h, read-out: IC50 MDA‐MB‐231; CTG, 5 days, n = 3
Protocol: (§1) All cells were grown in a humidified incubator at 37 °C and 5% CO2.
(§2) […] […] Relative viability was calculated by normalizing the raw luminescence counts of the treated groups to those of the DMSO control groups. IC₅₀ values were calculated using sigmoidal dose‐response curve fitting with GraphPad Prism 9.0 software.

MDA‐MB‐468 = experiment: Cell growth inhibition, CellTiter‐Glo (CTG); type: cell-based; conditions: Homo sapiens, MDA-MB-468, 120 h; CTG, 5 days, n = 3
Protocol: as §1, §2

MDA‐MB‐436 = experiment: Cell growth inhibition, CellTiter‐Glo (CTG); type: cell-based; conditions: Homo sapiens; for inhibition at 5 µM: MDA-MB-436, read-out: MDA‐MB‐436 inhibitory rate at certain concentration; for IC50: MDA-MB-436, 120 h, CTG, 5 days, n = 3
Protocol: as §1
Growth viability was determined by the CellTiter‐Glo luminescent viability assay (Promega) 5 days after drug treatment. Cell viability was measured immediately after dosing (Day 0) and after 5 days of incubation using CellTiter‐Glo (CTG, Promega, G7573). Relative viability was calculated by normalizing the raw luminescence counts of the treated groups to those of the DMSO control groups. IC₅₀ values were calculated using sigmoidal dose‐response curve fitting with GraphPad Prism 9.0 software.

ATR = biological target: T1, ATR (Homo sapiens, UniProt Q13535); experiment: ATR kinase inhibition, Mobility Shift Assay; type: biochemical; conditions: n = 3, mean ± SD
T1 construct: purchased Eurofins 14-953
T1 sequence (Q13535 whole entry): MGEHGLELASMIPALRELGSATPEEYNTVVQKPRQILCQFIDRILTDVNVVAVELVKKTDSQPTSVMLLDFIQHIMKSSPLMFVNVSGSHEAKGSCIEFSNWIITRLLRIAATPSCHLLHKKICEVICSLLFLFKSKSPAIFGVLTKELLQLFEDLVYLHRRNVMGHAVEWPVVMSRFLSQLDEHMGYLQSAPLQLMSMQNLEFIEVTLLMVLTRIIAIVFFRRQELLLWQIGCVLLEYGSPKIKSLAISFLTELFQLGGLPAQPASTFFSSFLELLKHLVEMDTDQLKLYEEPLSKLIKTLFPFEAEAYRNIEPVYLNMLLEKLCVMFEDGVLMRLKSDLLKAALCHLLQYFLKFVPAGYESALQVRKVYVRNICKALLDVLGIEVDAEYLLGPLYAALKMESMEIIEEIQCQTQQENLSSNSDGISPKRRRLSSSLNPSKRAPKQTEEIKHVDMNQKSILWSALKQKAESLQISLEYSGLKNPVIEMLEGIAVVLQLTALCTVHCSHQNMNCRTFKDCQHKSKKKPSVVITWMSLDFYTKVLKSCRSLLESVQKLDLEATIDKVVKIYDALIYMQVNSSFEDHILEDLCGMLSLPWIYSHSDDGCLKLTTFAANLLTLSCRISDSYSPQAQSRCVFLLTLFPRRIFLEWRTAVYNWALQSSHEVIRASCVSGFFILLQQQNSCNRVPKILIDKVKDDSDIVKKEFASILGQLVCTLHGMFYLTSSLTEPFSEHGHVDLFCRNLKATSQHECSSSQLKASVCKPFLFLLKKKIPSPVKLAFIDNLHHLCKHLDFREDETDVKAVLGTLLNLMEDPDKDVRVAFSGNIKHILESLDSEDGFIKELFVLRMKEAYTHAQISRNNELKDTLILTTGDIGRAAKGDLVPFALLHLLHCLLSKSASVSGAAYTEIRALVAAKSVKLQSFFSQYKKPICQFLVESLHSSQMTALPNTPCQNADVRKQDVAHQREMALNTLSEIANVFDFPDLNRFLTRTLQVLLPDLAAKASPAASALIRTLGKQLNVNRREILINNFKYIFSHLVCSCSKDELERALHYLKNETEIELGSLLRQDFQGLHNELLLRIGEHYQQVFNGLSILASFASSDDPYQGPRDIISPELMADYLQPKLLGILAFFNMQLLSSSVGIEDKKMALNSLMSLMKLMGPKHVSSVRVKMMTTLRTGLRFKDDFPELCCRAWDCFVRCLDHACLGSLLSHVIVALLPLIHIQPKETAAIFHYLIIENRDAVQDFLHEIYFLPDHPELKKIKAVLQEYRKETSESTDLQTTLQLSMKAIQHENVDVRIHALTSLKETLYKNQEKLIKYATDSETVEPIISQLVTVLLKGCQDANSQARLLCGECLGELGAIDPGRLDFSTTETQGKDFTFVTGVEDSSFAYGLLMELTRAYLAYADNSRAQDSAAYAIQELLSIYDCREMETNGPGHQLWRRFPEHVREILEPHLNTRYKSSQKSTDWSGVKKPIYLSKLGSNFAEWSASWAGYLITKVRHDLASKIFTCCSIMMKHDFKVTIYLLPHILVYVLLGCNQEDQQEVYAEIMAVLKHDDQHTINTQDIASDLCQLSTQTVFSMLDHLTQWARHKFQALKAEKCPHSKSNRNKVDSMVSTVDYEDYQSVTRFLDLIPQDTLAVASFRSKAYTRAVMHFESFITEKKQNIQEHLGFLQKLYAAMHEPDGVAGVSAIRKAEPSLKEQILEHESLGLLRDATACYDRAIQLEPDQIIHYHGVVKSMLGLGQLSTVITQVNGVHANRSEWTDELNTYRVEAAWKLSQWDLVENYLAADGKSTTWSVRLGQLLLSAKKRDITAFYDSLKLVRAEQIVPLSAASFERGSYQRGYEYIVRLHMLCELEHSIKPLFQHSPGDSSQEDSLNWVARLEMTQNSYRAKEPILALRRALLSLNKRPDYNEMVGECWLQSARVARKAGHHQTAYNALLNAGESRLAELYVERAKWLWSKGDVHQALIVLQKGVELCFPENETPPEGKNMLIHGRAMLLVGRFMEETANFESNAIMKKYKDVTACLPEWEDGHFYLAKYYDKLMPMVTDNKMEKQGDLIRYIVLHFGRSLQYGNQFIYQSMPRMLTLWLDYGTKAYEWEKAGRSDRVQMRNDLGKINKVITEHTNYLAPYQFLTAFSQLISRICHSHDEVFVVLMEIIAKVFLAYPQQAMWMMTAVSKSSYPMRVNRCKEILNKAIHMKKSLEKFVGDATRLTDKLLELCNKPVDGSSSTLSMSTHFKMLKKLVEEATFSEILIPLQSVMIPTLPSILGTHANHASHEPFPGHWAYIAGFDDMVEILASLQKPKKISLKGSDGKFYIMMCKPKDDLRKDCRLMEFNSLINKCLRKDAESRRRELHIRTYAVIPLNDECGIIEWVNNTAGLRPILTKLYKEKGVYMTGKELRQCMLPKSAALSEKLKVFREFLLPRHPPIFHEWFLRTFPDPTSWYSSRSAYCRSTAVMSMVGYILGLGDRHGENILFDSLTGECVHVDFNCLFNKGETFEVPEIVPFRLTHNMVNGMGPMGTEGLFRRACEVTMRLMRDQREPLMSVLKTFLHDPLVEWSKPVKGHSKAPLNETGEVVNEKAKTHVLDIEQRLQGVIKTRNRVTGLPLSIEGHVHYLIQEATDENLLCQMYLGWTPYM
T1 sequence (Q8WXE1 whole entry partner): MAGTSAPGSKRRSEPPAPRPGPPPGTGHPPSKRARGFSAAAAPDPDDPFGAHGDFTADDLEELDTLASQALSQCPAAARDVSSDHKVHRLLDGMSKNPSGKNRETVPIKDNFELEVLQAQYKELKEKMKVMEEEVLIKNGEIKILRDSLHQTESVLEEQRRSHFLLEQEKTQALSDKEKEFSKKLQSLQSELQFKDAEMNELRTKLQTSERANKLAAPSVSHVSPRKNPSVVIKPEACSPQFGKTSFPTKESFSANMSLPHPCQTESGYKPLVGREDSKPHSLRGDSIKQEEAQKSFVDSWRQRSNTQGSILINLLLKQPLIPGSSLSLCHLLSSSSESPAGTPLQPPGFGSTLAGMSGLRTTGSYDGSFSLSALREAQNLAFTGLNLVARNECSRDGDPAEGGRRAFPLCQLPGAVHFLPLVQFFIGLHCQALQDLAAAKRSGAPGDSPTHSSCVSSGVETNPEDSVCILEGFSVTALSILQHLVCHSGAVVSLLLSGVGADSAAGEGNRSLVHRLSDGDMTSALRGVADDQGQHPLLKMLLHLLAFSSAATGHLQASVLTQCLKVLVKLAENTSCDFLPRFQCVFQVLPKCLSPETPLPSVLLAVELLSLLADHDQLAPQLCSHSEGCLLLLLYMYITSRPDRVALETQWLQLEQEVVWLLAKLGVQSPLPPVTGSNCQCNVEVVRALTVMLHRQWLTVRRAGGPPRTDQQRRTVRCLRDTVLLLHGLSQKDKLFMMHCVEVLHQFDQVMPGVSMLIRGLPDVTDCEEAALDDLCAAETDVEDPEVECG
Protocol: The in vitro ATR kinase inhibitory activities were determined by ChemPartner Co., Ltd. (Shanghai, China) using the Mobility Shift Assay. The tested compound was dissolved with DMSO and diluted to 1000/3 × of the final desired highest inhibitor concentration in the reaction. […] The assay wells were incubated at 28 °C for 4 h.

PARP1 = PARP1 (Homo sapiens, UniProt P09874); experiment: PARP enzymatic inhibition ELISA (PARP1); type: biochemical; conditions: n = 3, mean ± SD
Sequence of PARP1 (P09874 whole entry): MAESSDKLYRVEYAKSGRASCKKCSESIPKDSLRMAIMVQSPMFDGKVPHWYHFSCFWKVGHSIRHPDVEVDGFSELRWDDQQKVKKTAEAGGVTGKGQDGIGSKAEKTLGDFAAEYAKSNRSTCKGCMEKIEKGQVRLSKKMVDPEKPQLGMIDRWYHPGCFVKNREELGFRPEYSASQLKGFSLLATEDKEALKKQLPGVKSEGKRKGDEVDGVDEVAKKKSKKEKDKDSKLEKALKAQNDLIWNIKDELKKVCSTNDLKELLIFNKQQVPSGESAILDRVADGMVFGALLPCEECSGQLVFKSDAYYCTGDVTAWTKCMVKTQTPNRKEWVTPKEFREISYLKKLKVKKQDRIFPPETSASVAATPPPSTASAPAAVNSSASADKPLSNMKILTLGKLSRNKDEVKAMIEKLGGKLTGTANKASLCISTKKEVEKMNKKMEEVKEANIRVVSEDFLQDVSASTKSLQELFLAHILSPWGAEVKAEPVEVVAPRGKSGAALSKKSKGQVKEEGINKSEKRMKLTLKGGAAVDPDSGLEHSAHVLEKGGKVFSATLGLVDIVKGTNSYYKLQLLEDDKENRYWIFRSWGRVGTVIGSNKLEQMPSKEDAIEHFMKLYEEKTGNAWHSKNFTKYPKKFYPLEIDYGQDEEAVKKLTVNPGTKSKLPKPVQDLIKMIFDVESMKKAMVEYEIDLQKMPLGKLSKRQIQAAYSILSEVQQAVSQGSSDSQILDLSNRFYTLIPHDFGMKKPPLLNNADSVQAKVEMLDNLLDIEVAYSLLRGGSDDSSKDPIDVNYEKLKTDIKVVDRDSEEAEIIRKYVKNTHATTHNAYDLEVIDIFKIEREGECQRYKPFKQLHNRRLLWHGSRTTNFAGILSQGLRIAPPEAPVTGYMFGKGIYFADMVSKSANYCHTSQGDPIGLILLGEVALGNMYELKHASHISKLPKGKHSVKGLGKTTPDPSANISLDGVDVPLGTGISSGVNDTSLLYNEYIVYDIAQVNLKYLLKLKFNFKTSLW
Protocol: The PARP activity assay was performed by ChemPartner (Shanghai, China). Each well was precoated with histone (final conc.: 100 ng mL^−1) diluted in PBS buffer (contains 10 mmol L^−1 NaH2PO4 and 150 mmol L^−1 NaCl, pH 7.4) by incubation at 4 °C overnight. […] The reaction was initiated by the addition of 10 µL of PARP (final conc.: 0.007 nM/well) at room temperature for 60 min. Add 20 µL of anti‐Poly/Mono‐ADP Ribose Rabbit mAb. Incubate for 1.5 h at room temperature and wash the plate three times using PBST buffer. […] Incubate for 1 h at room temperature and wash the plate three times using PBST buffer. Add 25 µL Femto‐ECL Substrate A and Femto‐ECL Substrate B (1:1) mix. Immediately read chemiluminescence on Envision (Revvity, USA).

| Structure (SMILES) | IC50 (ATR) | IC50 (PARP1) | IC50 (MDA‐MB‐231) | IC50 (MDA‐MB‐468) | inhibition at 5 µM (MDA‐MB‐436) | IC50 (MDA‐MB‐436) |
| --- | --- | --- | --- | --- | --- | --- |
| C[C@@H]1COCCN1c1cc(CNC(=O)CNC(=O)c2cc(Cc3n[nH]c(=O)c4ccccc34)ccc2F)nc(-c2ccnc3[nH]ccc23)n1 [Compound B2, (R)‐2‐fluoro‐N‐(2‐(((6‐(3‐methylmorpholino)‐2‐(1H‐pyrrolo[2,3‐b]pyridin‐4‐yl)pyrimidin‐4‐yl)methyl)amino)‐2‐oxoethyl)‐5‐((4‐oxo‐3,4‐dihydrophthalazin‐1‐yl)methyl)benzamide] | 168 ± 7.8 nM | 16 ± 2.4 nM | 10580 ± 10 nM | 8410 ± 610 nM | 40.3% |  |
| C[C@@H]1COCCN1c1cc(CNC(=O)C2CCN(C(=O)c3cc(Cc4n[nH]c(=O)c5ccccc45)ccc3F)CC2)nc(-c2ccnc3[nH]ccc23)n1 [Compound B5, (R)‐1‐(2‐fluoro‐5‐((4‐oxo‐3,4‐dihydrophthalazin‐1‐yl)methyl)benzoyl)‐N‐((6‐(3‐methylmorpholino)‐2‐(1H‐pyrrolo[2,3‐b]pyridin‐4‐yl)pyrimidin‐4‐yl)methyl)piperidine‐4‐carboxamide] | 36.7 ± 4.6 nM | 1.2 ± 0.3 nM | 4480 ± 1080 nM | 1460 ± 100 nM |  | 1190 ± 230 nM |
| C[C@@H]1COCCN1c1cc(CNC(=O)CCNC(=O)c2cc(Cc3n[nH]c(=O)c4ccccc34)ccc2F)nc(-c2ccnc3[nH]ccc23)n1 [Compound B3, (R)‐2‐fluoro‐N‐(3‐(((6‐(3‐methylmorpholino)‐2‐(1H‐pyrrolo[2,3‐b]pyridin‐4‐yl)pyrimidin‐4‐yl)methyl)amino)‐3‐oxopropyl)‐5‐((4‐oxo‐3,4‐dihydrophthalazin‐1‐yl)methyl)benzamide] | 347 ± 15.7 nM | 9.5 ± 1.8 nM | 14300 ± 1400 nM | 17700 ± 530 nM | 34.9% |  |
| C[C@@H]1COCCN1c1cc(CNS(=O)(=O)C2CCN(C(=O)c3cc(Cc4n[nH]c(=O)c5ccccc45)ccc3F)CC2)nc(-c2ccnc3[nH]ccc23)n1 [Compound B6, (R)‐1‐(2‐fluoro‐5‐((4‐oxo‐3,4‐dihydrophthalazin‐1‐yl)methyl)benzoyl)‐N‐((6‐(3‐methylmorpholino)‐2‐(1H‐pyrrolo[2,3‐b]pyridin‐4‐yl)pyrimidin‐4‐yl)methyl)piperidine‐4‐sulfonamide] | 112 ± 5.3 nM | 0.46 ± 0.1 nM | 3960 ± 2050 nM | 700 ± 70 nM |  | 780 ± 80 nM |

Now from value to compound, other results behind:

| IC50 (ATR) | IC50 (PARP1) | Structure (SMILES) | IC50 (MDA‐MB‐231) | IC50 (MDA‐MB‐468) | inhibition at 5 µM (MDA‐MB‐436) | IC50 (MDA‐MB‐436) |
| --- | --- | --- | --- | --- | --- | --- |
| > 500 nM | 0.98 ± 0.88 nM | C[C@@H]1COCCN1c1cc(C2(NC(=O)N3CCN(C(=O)c4cc(Cc5n[nH]c(=O)c6ccccc56)ccc4F)CC3)CC2)nc(-c2ccnc3[nH]ccc23)n1 [Compound A6, (R)‐4‐(2‐fluoro‐5‐((4‐oxo‐3,4‐dihydrophthalazin‐1‐yl)methyl)benzoyl)‐N‐(1‐(6‐(3‐methylmorpholino)‐2‐(1H‐pyrrolo[2,3‐b]pyridin‐4‐yl)pyrimidin‐4‐yl)cyclopropyll)piperazine‐1‐carboxamide] | 4160 ± 1090 nM | 1150 ± 10 nM |  | 590 ± 10 nM |
| 78.8 ± 6.2 nM | 0.76 ± 0.09 nM | C[C@@H]1COCCN1c1cc(CNC(=O)N2CCN(C(=O)c3cc(Cc4n[nH]c(=O)c5ccccc45)ccc3F)CC2)nc(-c2ccnc3[nH]ccc23)n1 [Compound B7, (R)‐4‐(2‐fluoro‐5‐((4‐oxo‐3,4‐dihydrophthalazin‐1‐yl)methyl)benzoyl)‐N‐((6‐(3‐methylmorpholino)‐2‐(1H‐pyrrolo[2,3‐b]pyridin‐4‐yl)pyrimidin‐4‐yl)methyl)piperazine‐1‐carboxamide] | 1600 ± 90 nM | 960 ± 40 nM |  | 1290 ± 560 nM |
| 111 ± 8.1 nM | 6.2 ± 0.9 nM | C[C@@H]1COCCN1c1cc(CNC(=O)CCCNC(=O)c2cc(Cc3n[nH]c(=O)c4ccccc34)ccc2F)nc(-c2ccnc3[nH]ccc23)n1 [Compound B4, (R)‐2‐fluoro‐N‐(4‐(((6‐(3‐methylmorpholino)‐2‐(1H‐pyrrolo[2,3‐b]pyridin‐4‐yl)pyrimidin‐4‐yl)methyl)amino)‐4‐oxobutyl)‐5‐((4‐oxo‐3,4‐dihydrophthalazin‐1‐yl)methyl)benzamide] | 14300 ± 3910 nM | 6830 ± 100 nM | 47% |  |
